Reference: patent US9096494B2, “Arachidonic acid analogs and methods for analgesic treatment using same” (priority 2009, dated 2015)

Legend:
mice [1] = test: Tail-flick assay in mouse; type: in vivo
Description: The tail-flick assay is based on the time measured to reflex withdrawal of the tail in response to a radiant heat source. The maximum exposure time to the radiant heat source is set at 10 seconds. Prior to treatment, a baseline (BL) time measured to tail-flick withdrawal is determined after two exposures to the radiant source separated by a 30 min period. Control mice are intravenously treated with vehicle and test mice are intravenously treated with analgesic test compound. Data of tail-flick withdrawal of treated mice (TM) are calculated as maximum possible effect (MPE), where MPE=(TM−BL)/(10−BL). Tail-flick withdrawal is measured at 5 min, 15 min, 30 mm, and 1 hr. A total of 3-5 mice are used for each time point tested.

[2] = Intravenous analgesia: onset and duration of effect
mice [3] = test: Writhing assay in mouse (bolus and continuous infusion); type: in vivo; conditions: mouse, in vivo

CN1CC[C@]23c4c5ccc(O)c4O[C@H]2[C@@H](O)C=C[C@H]3[C@H]1C5 [Morphine, morphine, reference compound]
time to maximal (full) analgesic response, tail-flick (mice [1]; 10 mg/kg intravenous bolus): 15 min
dose needed in tail-flick assay relative to writhing assay for a moderate level of efficacy (mice [1]; intravenous): roughly 100 ×
time to peak effect ([2]; animal tests): 15 to 40 min
onset of analgesia after intravenous bolus injection or infusion ([2]; from the start of injection): 20 min
duration of analgesic effect from bolus injection ([2]; intravenous bolus): 35 to 40 min
continuous infusion dose producing roughly the same level of analgesia (roughly 50% MPE), writhing assay (mice [3]): 1 mg/kg/h
time over which analgesic levels are sustained by continuous infusion (mice [3]): 24 h
dose achieving 100% MPE, writhing assay (mice [3]; iv): approximately 0.5 mg/kg
